Tests used:
[1] = tested on: normal NK cells expanded with K562-aAPC; assay: drug sensitivity score (DSS) (DSS units); higher = more sensitive; extreme values may be limits of the assay; conditions: 72 h; IL-2 2.5 ng/mL
Procedure: (§1)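 Drug sensitivity and resistance testing on K562-aAPC-expanded normal NK cells: 5 concentrations (10-fold steps over a 10,000-fold range), 72 h at 37 °C, viability by CellTiter-Glo normalised to DMSO and benzethonium chloride controls; DSS from the fitted curve.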

[2] = tested on: normal NK cells expanded with K562-aAPC; assay: percent inhibition of viability; higher = more inhibition; conditions: 72 h, IL-2 2.5 ng/mL
Procedure: as §1

[3] = tested on: NK-YS (IL-2 2.5 ng/mL); assay: as above; conditions: 72 h
[4] = tested on: normal primary NK cells, pool 1 (3 donors), resting (IL-2 0 ng/mL); assay: as above; conditions: 72 h
[5] = tested on: normal primary NK cells, pool 3 (3 donors) (IL-2 2.5 ng/mL); assay: as above; conditions: 72 h
[6] = tested on: YT (IL-2 2.5 ng/mL); assay: as above; conditions: 72 h
[7] = tested on: normal primary NK cells, pool 2 (3 donors) (IL-2 2.5 ng/mL); assay: as above; conditions: 72 h
[8] = tested on: NKL (IL-2 2.5 ng/mL); assay: as above; conditions: 72 h
[9] = tested on: SNK-6 (IL-2 2.5 ng/mL); assay: as above; conditions: 72 h
[10] = tested on: normal primary NK cells, pool 1 (3 donors) (IL-2 2.5 ng/mL); assay: as above; conditions: 72 h
[11] = tested on: NK-92 (IL-2 2.5 ng/mL); assay: as above; conditions: 72 h
[12] = tested on: KHYG-1 (IL-2 2.5 ng/mL); assay: as above; conditions: 72 h
[13] = tested on: DERL-7 (IL-2 2.5 ng/mL); assay: as above; conditions: 72 h
[14] = tested on: KAI3 (IL-2 2.5 ng/mL); assay: as above; conditions: 72 h
[15] = tested on: IMC-1 (IL-2 20 ng/mL); assay: as above; conditions: 72 h
[16] = tested on: NK-YS (IL-2 2.5 ng/mL); assay: drug sensitivity score (DSS) (DSS units); higher = more sensitive; extreme values may be limits of the assay; conditions: 72 h
[17] = tested on: normal primary NK cells, pool 1 (3 donors), resting (IL-2 0 ng/mL); assay: as above; conditions: 72 h
[18] = tested on: normal primary NK cells, pool 3 (3 donors) (IL-2 2.5 ng/mL); assay: as above; conditions: 72 h
[19] = tested on: YT (IL-2 2.5 ng/mL); assay: as above; conditions: 72 h
[20] = tested on: normal primary NK cells, pool 2 (3 donors) (IL-2 2.5 ng/mL); assay: as above; conditions: 72 h
[21] = tested on: NKL (IL-2 2.5 ng/mL); assay: as above; conditions: 72 h
[22] = tested on: SNK-6 (IL-2 2.5 ng/mL); assay: as above; conditions: 72 h
[23] = tested on: normal primary NK cells, pool 1 (3 donors) (IL-2 2.5 ng/mL); assay: as above; conditions: 72 h
[24] = tested on: NK-92 (IL-2 2.5 ng/mL); assay: as above; conditions: 72 h
[25] = tested on: KHYG-1 (IL-2 2.5 ng/mL); assay: as above; conditions: 72 h
[26] = tested on: DERL-7 (IL-2 2.5 ng/mL); assay: as above; conditions: 72 h
[27] = tested on: KAI3 (IL-2 2.5 ng/mL); assay: as above; conditions: 72 h
[28] = tested on: IMC-1 (IL-2 20 ng/mL); assay: as above; conditions: 72 h

FC(F)c1nc2ccccc2n1-c1nc(N2CCOCC2)nc(N2CCOCC2)n1 [ZSTK474] (max concentration tested 10000 nM)
Conditions	drug sensitivity score
[1]	7.86
[16]	7.54
[17]	5.69
[18]	1.91
[19]	9
[20]	3.84
[21]	11
[22]	7.51
[23]	7.96
[24]	16.9
[25]	4.45
[26]	18.4
[27]	9.53
[28]	0

percent inhibition of viability [%]
Conditions	1 nM	10 nM	100 nM	1000 nM	10000 nM
[2]	-8.61	1.11	12.5	35.9	49.6
[3]	-6.13	-3.67	5.5	36	57.2
[4]	-19.3	-14.1	10.2	27.2	41.5
[5]	-3.55	-8.03	-3.22	10.6	22
[6]	3.19	3.41	11.6	42.3	50.5
[7]	-2.66	-3.09	1.26	20	34.2
[8]	-4.7	3.86	6.05	54.5	69.3
[9]	17.9	-3.78	-1.36	35.9	58.6
[10]	-2.64	-1.27	20.4	31.6	32.4
[11]	1.13	13.1	45.6	48.8	57.2
[12]	1.03	-2.51	5.44	17.9	48
[13]	6	10.9	36.5	75.4	81.7
[14]	4.91	1.34	14.2	43.2	55.8
[15]	0.84	-3.67	-9.08	-31.5	-20.7

COc1cccc2c1C(=O)c1c(O)c3c(c(O)c1C2=O)C[C@@](O)(C(=O)CO)C[C@@H]3O[C@H]1C[C@H](N)[C@H](O)[C@H](C)O1 [Doxorubicin] (max concentration tested 1000 nM)
Conditions	drug sensitivity score
[1]	10.8
[16]	17.1
[17]	13.3
[18]	8.97
[19]	13.3
[20]	10.2
[21]	28.7
[22]	15.5
[23]	10.3
[24]	12.8
[25]	14.6
[26]	17.4
[27]	16.2
[28]	16

percent inhibition of viability [%]
Conditions	0.1 nM	1 nM	10 nM	100 nM	1000 nM
[2]	-3.12	-5.25	-1.72	39.8	99.8
[3]	-8.43	-6.33	14.6	83.5	95.3
[4]	-18	-16.6	1.78	70.1	92.1
[5]	-4.57	-14.4	-9.04	23.1	97.2
[6]	-4.73	-5.55	-0.81	69.3	97.2
[7]	-14	-6.82	-8.6	37.2	94.4
[8]	-17.6	-0.29	89.2	102	97.3
[9]	20	14.8	5.01	80.6	94.3
[10]	-9.2	-4.36	4.47	40.8	96.5
[11]	-8.55	11.3	-2.45	64.2	96.6
[12]	-8.45	-6.72	-0.27	79.3	98.3
[13]	-0.26	-4.85	13.4	85.9	100
[14]	-17.1	-0.05	19.4	74.9	89.1
[15]	-7.6	-2.62	-0.06	88.2	99.8

CC(=O)O[C@H]1C(=O)[C@@]2(C)[C@H]([C@H](OC(=O)c3ccccc3)[C@]3(O)C[C@H](OC(=O)[C@H](O)[C@@H](NC(=O)c4ccccc4)c4ccccc4)C(C)=C1C3(C)C)[C@]1(OC(C)=O)CO[C@@H]1C[C@@H]2O [Paclitaxel] (max concentration tested 1000 nM)
Conditions	drug sensitivity score
[1]	10.8
[16]	22.8
[17]	0
[18]	0
[19]	27.5
[20]	0.27
[21]	26.6
[22]	23.7
[23]	0
[24]	18.8
[25]	26.9
[26]	30.3
[27]	18.9
[28]	30.2

percent inhibition of viability [%]
Conditions	0.1 nM	1 nM	10 nM	100 nM	1000 nM
[2]	0.76	-4.63	3.65	56.1	55.1
[3]	-2.51	-5.4	71.3	77.6	64.6
[4]	-38.3	-37.4	-2.05	-14	0.96
[5]	-12.4	-15.8	-13.3	-0.71	10.2
[6]	-2.12	-2.24	82.5	102	93.8
[7]	-2.11	-0.3	-9.26	1.41	14
[8]	-17.5	-11.8	84.1	93.2	87.1
[9]	6.76	-3.54	75.5	79	72.6
[10]	-14.5	-13.4	-1.12	-4.6	3.64
[11]	-18.6	-5.15	11.3	92.6	94
[12]	-5.68	-0.23	77.2	106	99.2
[13]	2.23	-0.79	99.4	100	99.4
[14]	-12.1	9.77	53	60.6	46.1
[15]	-7.88	-0.55	98.5	100	99.5

COc1cccc2cc(-c3nc([C@H]4CC[C@H](C(=O)O)CC4)n4ncnc(N)c34)[nH]c12 [OSI-027] (max concentration tested 10000 nM)
Conditions	drug sensitivity score
[1]	4.91
[16]	5.77
[17]	2.18
[18]	4.17
[19]	6.33
[20]	4.93
[21]	10.9
[22]	7.2
[23]	2.65
[24]	8.91
[25]	6.5
[26]	8.48
[27]	7.92
[28]	0.09

percent inhibition of viability [%]
Conditions	1 nM	10 nM	100 nM	1000 nM	10000 nM
[2]	-6.22	-5.68	3.76	21.5	48.2
[3]	-5.3	-6.22	3.24	12.3	67.8
[4]	-7.98	3.28	-0.52	18.1	13
[5]	-5.61	1.81	2.65	24.4	23.8
[6]	2.96	3.52	7.55	26.5	62.3
[7]	-8.05	-2.56	3.22	27.2	24.8
[8]	-11.8	-3.21	15.2	49.5	66
[9]	4.93	11.4	9.18	31.7	55.4
[10]	-9.22	7.53	-13.9	16.4	24.5
[11]	2.75	14.2	11.7	37.3	67
[12]	-1.84	-0.78	4.77	18.4	68.1
[13]	7.51	-0.27	4.62	33.3	81.3
[14]	-2.08	0.41	9.85	34.9	65.5
[15]	-0.57	-5.79	-6.31	-24.6	15.6

CC(=O)Nc1cccc(-n2c(=O)n(C3CC3)c(=O)c3c(Nc4ccc(I)cc4F)n(C)c(=O)c(C)c32)c1 [Trametinib] (max concentration tested 250 nM)
Conditions	drug sensitivity score
[1]	0
[16]	1.13
[17]	0
[18]	0.89
[19]	0
[20]	0
[21]	15.5
[22]	0
[23]	1.13
[24]	0.89
[25]	10.7
[26]	10.2
[27]	4.13
[28]	0.89

percent inhibition of viability [%]
Conditions	0.025 nM	0.25 nM	2.5 nM	25 nM	250 nM
[2]	-1.03	-2.71	-0.52	-0.63	1.09
[3]	-3.76	0.79	3.16	13.2	9.03
[4]	-7.3	-4.37	3.53	-1.6	4.62
[5]	-14.5	-14.1	-12	-11.3	-11.4
[6]	-2.64	-1.54	0.86	2.64	-0.71
[7]	-4.75	-6.13	-1.09	4.26	-5.37
[8]	-13.6	-3.27	31.2	60.9	62.5
[9]	8.07	2.1	-22.8	-18.2	-19.1
[10]	-8.95	-7.23	10.8	8.62	17.9
[11]	-8.96	-8.36	-15.1	-31.2	-2.14
[12]	-1.89	-0.88	17.2	47.1	54.2
[13]	1.02	7.15	24.3	38.5	49.2
[14]	-0.65	10.4	14.7	17.6	21.2
[15]	-7.84	-6.23	-12.6	-5.74	-11.9

— the supplement of paper PMC5908809
